Holding throughout (test): growth of human tumour cells (NCI), 48 h
In assay [1] the test system is SF-295 CNS.
The test system of assay [2] is CCRF-CEM leukemia.
Assay [3] relates to HOP-62 NSCLC.
Assay [4] relates to RXF 393 renal.
The subject of assay [5] is EKVX NSCLC.
Assay [6] relates to LOX IMVI melanoma.
The test system of assay [7] is HL-60(TB) leukemia.
The test system of assay [8] is SF-268 CNS.
In assay [9] the test system is SK-MEL-2 melanoma.
In assay [10] the test system is SR leukemia.

Several values for one entry are separate records, joined by “and”; a condition that tells them apart may be missing. Equal values may be shown once.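 Each compound was tested at five concentrations against cells in 96-well plates for 48 hours. GI50 = concentration required for 50% inhibition of growth. TGI: concentration producing complete growth inhibition.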 Where only a bound is given, the exact number is not on record here.

For 17 molecules, GI50 and TGI results are on record in PubChem BioAssay (NCI).

`C=CC(=O)N1CCN(c2nc(OC[C@@H]3CCCN3C)nc3c2CCN(c2cccc4cccc(C)c24)C3)C[C@@H]1CC#N`: the results for the GI50 in assay [1], in assay [2] and in assay [3] were 1.53 µM, 0.475 µM and under 0.01 µM, respectively. Also, the values for the TGI in assay [1], in [2] and in [3] were 2.9 µM, 2.78 µM and 1.64 µM, respectively.

For `c1ccc(C(c2ccccc2)[P+](c2ccccc2)(c2ccccc2)c2ccccc2)cc1`, the TGI in assay [1] was found to be 7.27 µM; in assay [4], 10.6 µM; in assay [5], 50.4 µM; in [2] it was 14.6 µM; in [3], 6.63 µM; in [6], 1.52 µM. For the same molecule, the TGI in assay [7] is 4.05 µM; in [8], 15.3 µM; in [9], 1.25 µM.

For the molecule `CCCCCCCCCCCCCCCC[N+](C)(C)CCN(Cc1ccc(OC)cc1)c1ncccn1`, the GI50 in assay [4] was 1.52 µM and 0.821 µM; in assay [10], 1.25 µM; in assay [5] it was 1.89 µM; in [3] it was 1.54 µM; in [6], 1.17 µM; in assay [7], 1.4 µM and 0.661 µM. Also, the figures for the GI50 in [8] and in [9] were 1.39 µM and 2.88 µM, respectively. The TGI in assay [4] was 3.49 µM and 2.43 µM; in [10], over 100 µM; in [5], 7.52 µM; in [3], 2.95 µM; in assay [6], 3.33 µM; in assay [7], 3.99 µM and 4.79 µM. For the same molecule, the TGI is 3.74 µM in assay [8] and 6.95 µM in assay [9].

With `COc1ccccc1N1C(Cl)C(=O)C1c1c[nH]c2ccccc12` (centres undefined), the TGI in [1], in [4], in assay [10], in assay [5], in [2] and in assay [3] was over 100 µM in each case. The TGI in assay [7], in assay [8] and in assay [9] was over 100 µM in each case.

As to `Nc1ccc(C2NC(=O)Cc3c2ccc2ccccc32)cc1` (centres undefined), the TGI in assay [1], in assay [10], in assay [5], in assay [2], in assay [3] and in assay [6] was over 100 µM throughout. Also, the TGI in assay [7], in [8] and in assay [9] was over 100 µM throughout.

`Cc1ccc2cc3c(ccc4ccccc43)c3c2c1CC3`: the TGI in assay [1], in [4], in assay [10], in [5], in [2] and in assay [3] was over 100 µM throughout. Also, the TGI in [6], in assay [7], in assay [8] and in assay [9] was over 100 µM in each case.

For `COc1ccc2oc(=O)cc(C)c2c1`, the TGI in assay [1], in assay [4], in assay [10], in [5], in [2] and in assay [3] was over 100 µM in each case. The TGI in assay [6], in assay [7], in [8] and in assay [9] was over 100 µM each time.

For `O=C(O)C(O)Cc1ccccn1` (centres undefined), the TGI in assay [1], in [4], in assay [10], in assay [5], in assay [2] and in assay [3] was over 100 µM each time. The TGI in [6], in assay [7], in assay [8] and in [9] was over 100 µM in each case.

On to `CCCCNc1c(CN)cnc2cc(Cl)ccc12`, for which the TGI in assay [1] was 29.8 µM; in [4], 29.5 µM; in assay [5], 17.1 µM; in assay [2], 18.7 µM; in [3] it was 35.4 µM; in [6] it was 29.9 µM. Moreover, the TGI was found to be 3.92 µM in assay [7], 57.6 µM in assay [8] and 33.3 µM in assay [9].

Turning to `CN(C)CCCNc1ncnc2nc[nH]c12`, the TGI in assay [1], in assay [4], in assay [5], in assay [2], in assay [3] and in assay [6] was over 100 µM throughout. Besides, the TGI in assay [8] and in [9] was over 100 µM throughout.

`NC(=O)NO`: the TGI in assay [1] is 1950 µM; in assay [4], 1880 µM; in [10] it was 1620 µM; in assay [5], over 2460 µM; in assay [2], 1060 µM; in [3], 2220 µM. In addition, the TGI in [6] is over 2430 µM; in assay [7], 182 µM; in assay [8], 2340 µM; in assay [9], over 2450 µM. For the same molecule, the GI50 in assay [7] is 21 µM.

On to `FC(F)(F)C(C1=NC(C(F)(F)F)(C(F)(F)F)N=C(N2CCOCC2)O1)C(F)(F)F`, for which the TGI worked out at 44.6 µM in assay [1]; 37 µM in [4]; 61.2 µM in assay [10]; 61.3 µM in assay [5]; 25.3 µM in [2]; 63.8 µM in assay [6]. Also, the TGI in [7] is 22 µM; in assay [8], over 100 µM; in assay [9], 57.8 µM.

As to `O=C(c1ccccc1)[C@H]1Nc2ccc(Cl)cc2[C@H]2OCCC[C@@H]12`, the TGI in assay [1] turned out to be 32.8 µM; in assay [4], 32.4 µM; in assay [10], 79.2 µM; in assay [5], 50.4 µM; in assay [3], 32.6 µM; in assay [6], 31.2 µM. The values for the TGI in assay [8] and in [9] were 39.5 µM and 43.9 µM, respectively.

On to `CC(=O)Oc1ccc2c(C)cc(=O)oc2c1`, for which the TGI in [1], in [4], in [10], in assay [5], in assay [2] and in [3] was over 100 µM throughout. In addition, the TGI in assay [6], in [7], in assay [8] and in assay [9] was over 100 µM each time.

Take `O=C(O)CSCC(=O)O`: the TGI in assay [1], in assay [4], in [10], in assay [5], in assay [2] and in [3] was over 100 µM each time. Besides, the TGI in [6], in assay [7], in assay [8] and in [9] was over 100 µM throughout.

For `CS/C(=N\C(=S)Nc1ccccc1)Nc1ccccc1`, the TGI in [1] is 97 µM; in assay [4] it was 48.4 µM; in [10] it was 64.1 µM; in assay [3], over 100 µM; in [6], 38.2 µM; in assay [7] it was 39.2 µM. The TGI in assay [8] is over 100 µM; in [9], 56.4 µM.

Turning to `C=CCOC1OC(CS(=O)(=O)O)C(O)C(O)C1O` (centres undefined), the TGI in assay [1], in assay [4], in [10], in assay [3], in [6] and in assay [7] was over 100 µM throughout. The same molecule had a TGI in [9] of over 100 µM.
